# Measurements from PMC10580319, “Quantitative Imaging of the Action of vCPP2319, an Antimicrobial Peptide from a Viral Scaffold, against Staphylococcus aureus Biofilms of a Clinical Isolate” (ACS Infectious Diseases, 2023).
# Where no end group is shown, it is not given here.
# Columns and labels:
# [1] = system: S. aureus clinical isolate biofilms; assay: CLSM assay, SYTO 9 / WGA Alexa Fluor 633, polysaccharide density and mass, biofilm height; format: cell-based, Staphylococcus aureus; conditions: fold variation relative to untreated biofilm, 0.13 mg/mL α-amylase, 25 μM vCPP2319, 4 h each
# Description: (EC 3.2.1.1) on the EPS matrix of S. aureus biofilms was evaluated using a CLSM-based assay. Briefly, the bacterial cells and the matrix components of S. aureus biofilms were imaged using SYTO 9 and Wheat Germ Agglutinin (WGA) Alexa Fluor 633 Conjugate (Invitrogen, Carlsbad, CA, USA). Preformed biofilms (see above) were washed once with PBS and stained with 3 μM SYTO 9 and 5 μg/mL WGA Alexa Fluor 633, for 15 min at room temperature.
# SYTO 9 was excited using the Argon laser (488 nm), and both TO-PRO-3 iodide and WGA Alexa Fluor 633 were excited with the Helium–Neon laser (633 nm), respectively. Image acquisition was performed on a Zeiss LSM 710 confocal laser point-scanning inverted microscope (Carl Zeiss MicroImaging, Oberkochen, Germany) equipped with a Plan-Apochromat DIC 63× oil immersion objective (1.40 numerical aperture). For each experiment, three different areas were imaged. All images were analyzed with the image processor Fiji.[54] TO-PRO-3 mean fluorescence intensity over the image was quantified from the xy plane of an inner layer (z = 2 μm, z being the distance from the surface of the glass slide) using Fiji’s incorporated plug-ins.[54] WGA mean fluorescence intensity over the image was quantified from the xy plane of an inner layer (z = 2 μm, z being the distance from the surface of the glass slide) and also from a z-projection of the sum of the z-stack slices, using Fiji’s incorporated plug-ins.[54] Biofilm height was determined from the xz orthogonal images using ZEN lite software (Carl Zeiss MicroImaging).
# (§1) The mean emission fluorescence intensity of WGA integrated over a plane xy at a specific depth, z, If,WGA,xy, is proportional to the mass of polysaccharides in that plane.
# [2] = system: S. aureus clinical isolate biofilm-embedded bacteria; assay: CLSM live/dead assay, SYTO 9 / TO-PRO-3 iodide, membrane integrity; format: cell-based, Staphylococcus aureus; conditions: 25 and 50 μM, 4 h in PBS, inner layer z = 2 μm
# Description: To visualize the effect of vCPP2319 on membrane integrity of biofilm-embedded bacteria, an adapted live/dead assay using SYTO 9 and TO-PRO-3 iodide (Invitrogen) was performed, as previously described.[24]S. aureus suspensions at 1 × 10^6 CFU/mL were incubated in a sterile μ-Slide 8-well plate (Ibidi) for 24 h at 37 °C. Preformed biofilms were washed once with PBS and incubated with vCPP2319 at 25 or 50 μM, in PBS, for 4 h at 37 °C. Untreated biofilms were used as a control. After a washing step with PBS, biofilms were sequentially stained with 3 μM SYTO 9 for 30 min and 4 μM TO-PRO-3 iodide for 15 min at room temperature.
# SYTO 9 was excited using the Argon laser (488 nm), and both TO-PRO-3 iodide and WGA Alexa Fluor 633 were excited with the Helium–Neon laser (633 nm), respectively. […] All images were analyzed with the image processor Fiji.[54] TO-PRO-3 mean fluorescence intensity over the image was quantified from the xy plane of an inner layer (z = 2 μm, z being the distance from the surface of the glass slide) using Fiji’s incorporated plug-ins.[54] WGA mean fluorescence intensity over the image was quantified from the xy plane of an inner layer (z = 2 μm, z being the distance from the surface of the glass slide) and also from a z-projection of the sum of the z-stack slices, using Fiji’s incorporated plug-ins.[54] […]
# [3] = Dynamic light scattering, self-assembly; format: physicochemical; conditions: DLS, in PBS, preincubated 4 h at 25 °C, 50, 100, 200 and 500 μM, two independent experiments (Figure S2)
# Description: DLS experiments were carried out on a Zetasizer Nano ZS instrument from Malvern (Worcestershire, UK). vCPP2319, in PBS, was preincubated for 4 h, at 25 °C, at different concentrations (50, 100, 200, and 500 μM). The Z-average hydrodynamic diameter was measured using DLS in particle size analysis mode. For each experiment, a single measurement, corresponding to an autocorrelation curve averaged from a minimum of 20 runs, was performed. All measurements were performed at 25 °C. Data were obtained from two independent experiments.
# [4] = system: S. aureus clinical isolate biofilms; assay: Crystal violet binding assay, biofilm biomass, with global mass and density ratios; format: cell-based, Staphylococcus aureus
# Description: The effect of vCPP2319 on 24 h-preformed S. aureus biofilms was evaluated using three distinct methods, as previously described:[24] the metabolic activity and viability of biofilm-embedded cells was determined using a resazurin reduction fluorometric assay and a colony count assay, respectively. The total biofilm biomass was quantified by using a crystal violet assay.
# Crystal violet is a basic dye that binds to negatively charged molecules, such as those in biofilms EPS matrix and on bacterial membrane surface.[51]S. aureus suspensions at 1 × 10^6 CFU/mL were incubated in a 96-well microtiter clear flat-bottomed polystyrene plate (Corning) for 24 h at 37 °C. […] (EC 3.2.1.1), ranging from 0.0078 to 0.5 mg/mL, for 4 h at 37 °C. Untreated biofilms were used as a control. Biofilms were washed twice with MHB and incubated with 0.25% (v/v in sterile Milli-Q water) crystal violet (Sigma-Aldrich) for 30 min at room temperature. After each sample was washed three times with MHB, crystal violet was solubilized with 95% (v/v) ethanol (Carlo Erba Reagents S.A.S., France) by repeated pipetting. Biofilm biomass was quantified by measuring the absorbance at 590 nm of each sample in an infinite M200 microplate reader (Tecan). The percentage of crystal violet staining was determined relative to the control after blank (0.25% (v/v) crystal violet in sterile Milli-Q water) correction.
# as §1
substance,measurement,setting,value
WRRRYRRWRRRRRWRRRPRR-NH2 [vCPP2319],ρi/ρcontrol (polysaccharides) eq 4,[1]; WGA fluorescence at z = 2 μm,0.7
same,mi/mcontrol (polysaccharides) eq 5,[1]; integrated WGA fluorescence over total biofilm,0.5
same,ρi/ρcontrol (polysaccharides) eq 6,[1]; integrated WGA fluorescence over zz divided by biofilm height,0.8
same,"membrane damage, TO-PRO-3 iodide staining",[2],increase of red-stained bacteria
same,self-assembly,[3],self-assemble into nanoparticles
same,biofilm biomass reduction,"[4]; 24 h-preformed biofilms, 4 h treatment, crystal violet, relative to untreated biofilm",approximately 30%
same,mi/mcontrol (global) eq 7,"[4]; fold variation relative to untreated biofilm, fraction of crystal violet absorbance retained",0.7
same,ρi/ρcontrol (global) eq 8,"[4]; fold variation relative to untreated biofilm, from crystal violet data and biofilm volume, for both agents fi assumed as for α-amylase alone",1.2
